# Measurements reported in patent US20260231940A1, “METHOD FOR ATTRACTING COCKROACHES, COCKROACH ATTRACTANT, AND METHOD FOR CONTROLLING COCKROACHES” (SUMITOMO CHEMICAL COMPANY, LIMITED, priority 2023, published 2026).
# Tests used:
# Assay type in all cases: in vivo
# Blattella germanica [1] = test: Test Example 4: choice test, methoprene-applied filter paper uneven sheet; conditions: 1 g methoprene per 1 m^2, four hours after release, total of eight repetitions
# Text: (§1) FIG. 3 is a planar view schematically illustrating the test space used in Test Examples 1 to 5. […] Depending on the test system, a container 2 containing solid feed for MF mouse rats as bait and a container 3 containing water were placed between these two uneven sheets 1.
# (§2) A sheet formed from a filter paper (ADVANTEC qualitative filter paper No. 2, manufactured by Toyo Roshi Kaisha, Ltd.) wherein the sheet was a triangular wave shape in its cross-sectional shape as shown in FIG. 2(b) was used. Specifically, an uneven sheet (a corrugated sheet) the depth of the concave portion and the height of the convex portion of which were each 17 mm, and where the concave portions and the convex portions were formed in a corrugated shape so that the angle at the vertices of the concave portions might be 60° was prepared.
# (§3) As the uneven sheets 1 placed in the test space 20, all those being 10 cm×16 cm in size were used, and they were placed so that the ridge lines of the corrugations of the uneven sheets 1 were parallel to the lengthwise direction of the test space 20. […]
# (§4) In the test space 20 prepared as described above, Blattella germanica (30 individuals in total) were released, and four hours later, the number of individuals settled in each uneven sheet 1 and the number of individuals present in the test space 20 other than the uneven sheets 1 were counted. […]
# Blattella germanica [2] = test: Test Example 5: choice test, hydroprene-applied filter paper uneven sheet; conditions: 500 mg hydroprene per 1 m^2, 24 hours after release, total of eight repetitions
# Text: as §1, §2, §3
# In the test space 20 prepared as described above, Blattella germanica (30 individuals in total) were released, and 24 hours later, the number of individuals settled in each uneven sheet 1 and the number of individuals present in the test space 20 other than the uneven sheets 1 were counted. […]
# Cimex lectularius = test: Test Example 1: choice test, chemical-applied versus blank uneven sheet; conditions: 1 g pyriproxyfen per 1 m^2, four days after release, total of two repetitions
# Description: (§5) Specifically, an uneven sheet (a corrugated sheet) the depth of the concave portion and the height of the convex portion of which were each 10 mm, and where the concave portions and the convex portions were formed in a corrugated shape so that the angle at the vertices of the concave portion might be 53° was prepared. The uneven sheet was used in Test Example 1 and Test Example 2.
# as §1
# (§6) As the uneven sheets 1 placed in the test space 20, all those being 10 cm×10 cm in size were used, and they were placed so that the ridge lines of the corrugations of the uneven sheets 1 were parallel to the lengthwise direction of the test space 20.
# (§7) As test insects, Periplaneta americana nymphs, Cimex lectularius, Dermanyssus gallinae, Sitophilus zeamais, and Plodia interpunctella larvae were used. Cimex lectularius and Dermanyssus gallinae were released into each test space 20 where feed and water had not been placed and only corrugated sheets 1 had been placed. Periplaneta americana nymphs were released into test space 20 where containers 2 and 3 containing feed and water respectively placed between the facing uneven sheets 1 as shown in FIG. 3. Sitophilus zeamais and Plodia interpunctella larvae were released into each test space 20 where feed and water had not been placed and brown rice had been placed on uneven sheets 1 as a hiding place for the test insects.
# (§8) Four days after releasing the insects, the number of individuals settled in each uneven sheet 1 and the number of individuals present in the test space 20 other than the uneven sheets 1 were counted. The above test was conducted in two repetitions.
# Dermanyssus gallinae = test: as above; conditions: 1 g pyriproxyfen per 1 m^2, four days after release, total of two repetitions
# Description: as §5, §1, §6, §7, §8
# [3] = tested on: Periplaneta americana nymphs; test: as above
# Description: as §5, §1, §6, §7, §8
# [4] = tested on: Plodia interpunctella larvae; test: as above; conditions: 1 g pyriproxyfen per 1 m^2, four days after release, total of two repetitions
# Description: as §5, §1, §6, §7, §8
# Sitophilus zeamais = test: as above; conditions: 1 g pyriproxyfen per 1 m^2, four days after release, total of two repetitions
# Description: as §5, §1, §6, §7, §8
# Blattella germanica [5] = test: Test Example 2: choice test, pyriproxyfen amount series on uneven sheet; conditions: four hours after release, total of four repetitions; for Number of individuals Uneven sheet (chemical applied): 120 released
# Description: as §5, §1
# As the uneven sheets 1 placed in the test space 20, all those being 10 cm×16 cm in size were used, and they were placed so that the ridge lines of the corrugations of the uneven sheets 1 were parallel to the lengthwise direction of the test space 20. Additionally, containers 2 and 3 containing feed and water respectively were placed between the facing uneven sheets 1.
# In the test space 20 prepared as described above, Blattella germanica (30 individuals in total) were released, and four hours later, the number of individuals settled in each uneven sheet 1 and the number of individuals present in the test space 20 other than the uneven sheets 1 were counted. The above test was conducted in four repetitions.
# Blattella germanica [6] = test: Test Example 3: choice test, bistrifluron-applied filter paper uneven sheet; conditions: 1 g bistrifluron per 1 m^2, four hours after release, total of four repetitions
# Text: as §1, §2, §3, §4
# [7] = 60 released, brown rice on sheets
compound,measurement,setting,value
COC(C)(C)CCC[C@H](C)C/C=C/C(C)=C/C(=O)OC(C)C (racemic) [methoprene],Number of individuals Uneven sheet (chemical applied),Blattella germanica [1]; 240 released,152
same,Hiding rate (Chemical applied / Blank),Blattella germanica [1],2.92
CCOC(=O)/C=C(C)/C=C/CC(C)CCCC(C)C (centres unmarked) [hydroprene],Number of individuals Uneven sheet (chemical applied),Blattella germanica [2]; 240 released,160
same,Hiding rate (Chemical applied / Blank),Blattella germanica [2],2.13
CC(COc1ccc(Oc2ccccc2)cc1)Oc1ccccn1 (centres unmarked) [pyriproxyfen],Number of individuals Uneven sheet (chemical applied),"Cimex lectularius; 30 released, no feed or water",12
same,Hiding rate (Chemical applied / Blank),Cimex lectularius,0.75
same,Number of individuals Uneven sheet (chemical applied),"Dermanyssus gallinae; 59 released, no feed or water",17
same,Hiding rate (Chemical applied / Blank),Dermanyssus gallinae,0.94
same,Number of individuals Uneven sheet (chemical applied),"[3]; Periplaneta americana nymphs, 1 g pyriproxyfen per 1 m^2, four days after release, 60 released, total of two repetitions, feed and water placed",39
same,Hiding rate (Chemical applied / Blank),"[3]; Periplaneta americana nymphs, 1 g pyriproxyfen per 1 m^2, four days after release, total of two repetitions",1.86
same,attracting effect,[3]; conclusion from Table 1: Periplaneta americana nymphs versus the four other test species,specific to cockroaches
same,Number of individuals Uneven sheet (chemical applied),[4]; [7],23
same,Hiding rate (Chemical applied / Blank),[4],0.62
same,Number of individuals Uneven sheet (chemical applied),Sitophilus zeamais; [7],21
same,Hiding rate (Chemical applied / Blank),Sitophilus zeamais,0.64
same,Number of individuals Uneven sheet (chemical applied),Blattella germanica [5]; 10 mg/m^2 pyriproxyfen,78
same,Hiding rate (Chemical applied / Blank),Blattella germanica [5]; 10 mg/m^2 pyriproxyfen,1.95
same,Number of individuals Uneven sheet (chemical applied),Blattella germanica [5]; 100 mg/m^2 pyriproxyfen,70
same,Hiding rate (Chemical applied / Blank),Blattella germanica [5]; 100 mg/m^2 pyriproxyfen,1.52
same,Number of individuals Uneven sheet (chemical applied),Blattella germanica [5]; 500 mg/m^2 pyriproxyfen,98
same,Hiding rate (Chemical applied / Blank),Blattella germanica [5]; 500 mg/m^2 pyriproxyfen,5.44
same,Number of individuals Uneven sheet (chemical applied),Blattella germanica [5]; 1000 mg/m^2 pyriproxyfen,91
same,Hiding rate (Chemical applied / Blank),Blattella germanica [5]; 1000 mg/m^2 pyriproxyfen,3.25
same,Number of individuals Uneven sheet (chemical applied),Blattella germanica [5]; 2000 mg/m^2 pyriproxyfen,67
same,Hiding rate (Chemical applied / Blank),Blattella germanica [5]; 2000 mg/m^2 pyriproxyfen,1.40
same,Number of individuals Uneven sheet (chemical applied),Blattella germanica [5]; 5000 mg/m^2 pyriproxyfen,71
same,Hiding rate (Chemical applied / Blank),Blattella germanica [5]; 5000 mg/m^2 pyriproxyfen,1.54
O=C(NC(=O)c1c(F)cccc1F)Nc1cc(C(F)(F)F)cc(C(F)(F)F)c1Cl [bistrifluron],Number of individuals Uneven sheet (chemical applied),Blattella germanica [6]; 120 released,71
same,Hiding rate (Chemical applied / Blank),Blattella germanica [6],2.29
